Legend:
[1] = Guest molecule concentration after incubation in initial medium without polymer (Comparative Example 1); assay type: physicochemical; settings: 37° C.
Summary of the method: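 Dissolved guest content measured by HPLC of centrifuged supernatants (37° C., 13000 rpm, 5 min) sampled at 0.5 h, 3 h and 6 h. Incubation was polymer-free at 37° C.±0.5° C. in buffers of pH 2.0-7.4; nominal loading was set by maximum clinical dose.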

[2] = Binary (carrier), ternary and quaternary supramolecular self-assembly systems of polymer, carrier building block and target: guest concentration over incubation time (Examples 1-56); assay type: physicochemical
Method: pH 2.0 hydrochloric acid, pH 4.5 acetate, and pH 6.5, pH 6.8, or pH 7.4 phosphate buffer solutions were prepared. The selection of each initial medium followed the principle that the solubility in the initial medium of the selected targets (or active ingredients) should low enough, but should meet the detection sensitivity and accuracy requirements of the corresponding analytical methods. Each buffer as initial media was placed in a 50 ml test tube with a stopper, shaken in a constant temperature air shaker at 37° C.±0.5° C., with an amplitude of 200 rpm, and incubated for 1 hour. […] Samples were taken at 0.5 h, 3 h and 6 h after incubation, centrifuged at 37° C., 13000 rpm for 5 minutes, and the supernatant was diluted at least 10 times with the mobile phase under the target analyte analytical method, filtered, the initial filtrate was discarded, and the continued filtrate was used as the test solution for injection analysis. The corresponding HPLC method under each target object item in Table 8 was used to determine the content of each target substance. When the solubility of the target in the initial medium is below the quantitative limit of the analytical method, a small amount of surfactant, such as sodium dodecyl sulfate (SDS), Tween20, or Tween80, can be added appropriately.
Experiments were conducted according to the steps in Comparative Example 1, and quantitative analysis was carried out using the analytical method for each target to investigate the regulation ability of each binary supramolecular self-assembly system built from 0.5% polymer and target on guest molecules stacking.
Ternary supramolecular self-assembly systems based on different polymers, carrier building blocks, and targets were built according to the experimental scheme in Table 12, to investigate the influence of synergistic regulation of the carrier building blocks and the polymers on the stacking of target molecules, as well as the stability of the supramolecular self-assembly systems jointly built by them over incubation time. The initial medium, quantitative analysis method, pre-treatment method, and initial theoretical concentration of the target, corresponding to each target molecule in the experiment, were consistent with those in Comparative Examples 1 and 2. After a target was added to the system, the target was uniformly dispersed by ultrasonication at 37° C. for half an hour and then shaken in a 37° C. constant temperature air shaker, and samples were collected after different incubation time, i.e. 0.5 h, 1 h, 2 h, 3 h, 4 h, and 6 h.

[3] = Binary supramolecular self-assembly systems of polymer and target: guest concentration over incubation time (Comparative Example 2); assay type: physicochemical; settings: for Concentration of guest molecule in solution / Times that of the initial medium: 6 h
Method: Experiments were conducted according to the steps in Comparative Example 1, and quantitative analysis was carried out using the analytical method for each target to investigate the regulation ability […] stacking.

[4] = cited from earlier work
[5] = binary system with 0.5% polymer 101, incubation 0.5 h
[6] = binary system with 0.5% polymer 101, incubation 3 h
[7] = binary system with 0.5% polymer 101, incubation 6 h
[8] = binary system with 0.5% polymer 102, incubation 0.5 h
[9] = binary system with 0.5% polymer 102, incubation 3 h
[10] = binary system with 0.5% polymer 102, incubation 6 h
[11] = binary system with 0.5% polymer 103, incubation 0.5 h
[12] = binary system with 0.5% polymer 103, incubation 3 h
[13] = binary system with 0.5% polymer 103, incubation 6 h
[14] = binary system with 0.5% polymer 106, incubation 0.5 h
[15] = binary system with 0.5% polymer 106, incubation 3 h
[16] = binary system with 0.5% polymer 106, incubation 6 h
[17] = binary system with 0.5% polymer 107, incubation 0.5 h
[18] = binary system with 0.5% polymer 107, incubation 3 h
[19] = binary system with 0.5% polymer 107, incubation 6 h
[20] = quaternary: 202 (102H+107) + 0.5% 301, 6 h
[21] = quaternary: 202 (102H+107) + 0.5% 302, 6 h
[22] = quaternary: 204 (102H+103E5) + 0.5% 301, 6 h
[23] = quaternary: 204 (102H+103E5) + 0.5% 302, 6 h
[24] = ternary: 0.25% 102H + 0.5% 301, 6 h
[25] = ternary: 0.25% 102H + 0.5% 302, 6 h

CCCCC1OC(=O)c2ccccc21 (stereo not shown) [Butylphthalide]
Concentration of guest molecule measured after different incubated time ([1]; 0.5 h, pH 6.5 phosphate buffer): 252.2 µg/mL
Concentration of guest molecule measured after different incubated time ([1]; 3 h, pH 6.5 phosphate buffer): 246.4 µg/mL
Concentration of guest molecule measured after different incubated time ([1]; 6 h, pH 6.5 phosphate buffer): 246.0 µg/mL
Concentration of guest molecule in solution ([2]; ternary: 0.25% 102M + 0.25% 313, 2 h): 480.3 µg/mL
Concentration of guest molecule in solution ([2]; ternary: 0.25% 102M + 0.25% 313, 6 h): 650.6 µg/mL
Concentration of guest molecule in solution ([2]; ternary: 0.25% 102M + 0.25% 313, 10 h): 1026.3 µg/mL
Concentration of guest molecule in solution ([2]; ternary: 0.25% 102M + 0.25% 314, 2 h): 1103.4 µg/mL
Concentration of guest molecule in solution ([2]; ternary: 0.25% 102M + 0.25% 314, 6 h): 406.8 µg/mL
Concentration of guest molecule in solution ([2]; ternary: 0.25% 102M + 0.25% 318, 2 h): 521.5 µg/mL
Concentration of guest molecule in solution ([2]; ternary: 0.25% 102M + 0.25% 318, 6 h): 754.1 µg/mL
Concentration of guest molecule in solution ([2]; ternary: 0.25% 102M + 0.25% 318, 10 h): 1310.2 µg/mL
Concentration of guest molecule in solution ([2]; ternary: 0.25% 102M + 0.25% 319, 2 h): 413.5 µg/mL
Concentration of guest molecule in solution ([2]; ternary: 0.25% 102M + 0.25% 319, 6 h): 643.7 µg/mL
Concentration of guest molecule in solution ([2]; ternary: 0.25% 102M + 0.25% 319, 10 h): 1125.6 µg/mL
Concentration of the target in the solution measured after different incubation time [3, 5]: 555.9 µg/mL
Concentration of the target in the solution measured after different incubation time [3, 6]: 229.5 µg/mL
Concentration of the target in the solution measured after different incubation time [3, 7]: 230.7 µg/mL
Concentration of the target in the solution measured after different incubation time [3, 8]: 258.9 µg/mL
Concentration of the target in the solution measured after different incubation time [3, 9]: 245.3 µg/mL
Concentration of the target in the solution measured after different incubation time [3, 10]: 244.5 µg/mL
Concentration of the target in the solution measured after different incubation time [3, 11]: 234.7 µg/mL
Concentration of the target in the solution measured after different incubation time [3, 12]: 230.8 µg/mL
Concentration of the target in the solution measured after different incubation time [3, 13]: 233.8 µg/mL
Concentration of the target in the solution measured after different incubation time [3, 14]: 240.7 µg/mL
Concentration of the target in the solution measured after different incubation time [3, 15]: 244.6 µg/mL
Concentration of the target in the solution measured after different incubation time [3, 16]: 241.9 µg/mL
Concentration of the target in the solution measured after different incubation time [3, 17]: 242.4 µg/mL
Concentration of the target in the solution measured after different incubation time [3, 18]: 240.0 µg/mL
Concentration of the target in the solution measured after different incubation time [3, 19]: 243.7 µg/mL
Concentration of the target in the solution measured after different incubation time ([3]; binary system with 0.5% polymer 110, incubation 0.5 h): 240.5 µg/mL
Concentration of the target in the solution measured after different incubation time ([3]; binary system with 0.5% polymer 110, incubation 3 h): 253.9 µg/mL
Concentration of the target in the solution measured after different incubation time ([3]; binary system with 0.5% polymer 110, incubation 6 h): 252.1 µg/mL
LogD7.4 or Log P [4]: 3.36

CNC(=O)c1cc(Oc2ccc(NC(=O)Nc3ccc(Cl)c(C(F)(F)F)c3)cc2)ccn1 [Sorafenib]
Concentration of guest molecule measured after different incubated time ([1]; 0.5 h, 0.1% SDS in pH 6.8 phosphate buffer): 98.5 µg/mL
Concentration of guest molecule measured after different incubated time ([1]; 3 h, 0.1% SDS in pH 6.8 phosphate buffer): 4.1 µg/mL
Concentration of guest molecule measured after different incubated time ([1]; 6 h, 0.1% SDS in pH 6.8 phosphate buffer): 4.4 µg/mL
Concentration of guest molecule in solution [2, 20]: 512.2 µg/mL
Times that of the initial medium [2, 20]: 91.3 times
Concentration of guest molecule in solution [2, 21]: 572.8 µg/mL
Times that of the initial medium [2, 21]: 102.1 times
Concentration of guest molecule in solution [2, 22]: 543.3 µg/mL
Times that of the initial medium [2, 22]: 96.8 times
Concentration of guest molecule in solution [2, 23]: 431.5 µg/mL
Times that of the initial medium [2, 23]: 76.9 times
Concentration of guest molecule in solution [2, 24]: 609.8 µg/mL
Times that of the initial medium [2, 24]: 108.7 times
Concentration of guest molecule in solution [2, 25]: 644.6 µg/mL
Times that of the initial medium [2, 25]: 115 times
Concentration of guest molecule in solution ([2]; ternary: 102H + 310, carrier % not stated, 6 h): 65.6 µg/mL
Concentration of guest molecule in solution ([2]; ternary: 102H + 310, 2 h): 903.1 µg/mL
Concentration of guest molecule in solution ([2]; ternary: 102H + 311, 4 h): 804.8 µg/mL
Concentration of guest molecule in solution ([2]; ternary: 102H + 311, 6 h): 246.9 µg/mL
Concentration of guest molecule in solution ([2]; ternary: 102H + 313, carrier % not given, 6 h): 634.8 µg/mL
Concentration of guest molecule in solution ([2]; ternary: 102H + 313, 4 h): 884.2 µg/mL
Concentration of guest molecule in solution ([2]; ternary: 102H + 318, carrier % not stated, 6 h): 115.4 µg/mL
Concentration of guest molecule in solution ([2]; ternary: 102H + 318, 2 h): 778.1 µg/mL
Concentration of the target in the solution measured after different incubation time [3, 5]: 741.5 µg/mL
Concentration of the target in the solution measured after different incubation time [3, 6]: 751.6 µg/mL
Concentration of the target in the solution measured after different incubation time [3, 7]: 759.3 µg/mL
Concentration of the target in the solution measured after different incubation time [3, 8]: 770.6 µg/mL
Concentration of the target in the solution measured after different incubation time [3, 9]: 151.8 µg/mL
Concentration of the target in the solution measured after different incubation time [3, 10]: 102.9 µg/mL
Concentration of the target in the solution measured after different incubation time [3, 11]: 602.5 µg/mL
Concentration of the target in the solution measured after different incubation time [3, 12]: 61.5 µg/mL
Concentration of the target in the solution measured after different incubation time [3, 13]: 38.5 µg/mL
Concentration of the target in the solution measured after different incubation time ([3]; binary system with 0.5% polymer 104, incubation 0.5 h): 108.9 µg/mL
Concentration of the target in the solution measured after different incubation time ([3]; binary system with 0.5% polymer 104, incubation 3 h): 4.3 µg/mL
Concentration of the target in the solution measured after different incubation time ([3]; binary system with 0.5% polymer 104, incubation 6 h): 3.7 µg/mL
Concentration of the target in the solution measured after different incubation time [3, 14]: 765.3 µg/mL
Concentration of the target in the solution measured after different incubation time [3, 15]: 571.3 µg/mL
Concentration of the target in the solution measured after different incubation time [3, 16]: 310.3 µg/mL
Concentration of the target in the solution measured after different incubation time [3, 17]: 784.3 µg/mL
Concentration of the target in the solution measured after different incubation time [3, 18]: 432.2 µg/mL
Concentration of the target in the solution measured after different incubation time [3, 19]: 244.4 µg/mL
Concentration of guest molecule in solution ([3]; binary: 0.5% 102H): 102.9 µg/mL
Times that of the initial medium ([3]; binary: 0.5% 102H): 18.4 times
Average concentration of guest molecule in solution ([3]; binary: 0.5% 102H, within 4 to 6 hours): 110 µg/mL
Concentration of guest molecule in solution ([3]; binary: 0.5% 103E5): 33.4 µg/mL
Times that of the initial medium ([3]; binary: 0.5% 103E5): 6.0 times
Concentration of guest molecule in solution ([3]; binary: 0.5% 107): 171.6 µg/mL
Times that of the initial medium ([3]; binary: 0.5% 107): 30.6 times
LogD7.4 or Log P [4]: 4.34
